Results from patent US20100267561A1, “HERBICIDAL PYRIDAZINONE DERIVATIVES” (priority 2007, published 2010).

Columns and labels:
Assay in all cases: Test B pre-/postemergence plant response
Type in all cases: in vivo
[1] = test system: goosegrass (Eleusine indica)
Summary of the method: (§1)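 Seeds were sown and sprayed preemergence, while plants at 2 to 18 cm (1- to 4-leaf stage) got postemergence sprays. Compounds were formulated in a non-phytotoxic solvent mixture with surfactant. After 13 to 15 days in a greenhouse, injury was rated visually against untreated controls, 0 (no effect) to 100 (complete control).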

[2] = test system: Russian thistle (Salsola iberica); conditions: Preemergence
Summary of the method: as §1

[3] = test system: surinam grass (Brachiaria decumbens)
Summary of the method: as §1

[4] = test system: Italian ryegrass (Lolium multiflorum)
Summary of the method: as §1

[5] = test system: common ragweed (Ambrosia elation)
Summary of the method: as §1

[6] = test system: green foxtail (Setaria viridis)
Summary of the method: as §1

[7] = test system: johnsongrass (Sorghum halepense)
Summary of the method: as §1

[8] = test system: pigweed (Amaranthus retroflexus)
Summary of the method: as §1

[9] = test system: corn (Zea mays)
Summary of the method: as §1

[10] = test system: kochia (Kochia scoparia)
Summary of the method: as §1

[11] = test system: common (oilseed) sunflower (Helianthus annuus); conditions: Preemergence
Summary of the method: as §1

[12] = test system: yellow nutsedge (Cyperus esculentus)
Summary of the method: as §1

[13] = test system: eastern black (E.B.) nightshade (Solanum ptycanthum); conditions: Preemergence
Summary of the method: as §1

[14] = test system: giant foxtail (Setaria faberii)
Summary of the method: as §1

[15] = 8 g ai/ha, postemergence, 0-100 scale
[16] = Postemergence, 16 g ai/ha, scale 0 to 100
[17] = Postemergence, 31 g ai/ha, scale 0 to 100, 0 no effect, 100 complete control
[18] = Postemergence, 62 g ai/ha, scale 0 to 100, 0 no effect, 100 complete control
[19] = Preemergence, 16 g ai/ha, scale 0 to 100 (0 no effect, 100 complete control)
[20] = Preemergence, 31 g ai/ha, 0 to 100 scale, 0 no effect, 100 complete control
[21] = Preemergence, 62 g ai/ha, scale 0 to 100
[22] = Preemergence, 8 g ai/ha, scale 0 to 100
[23] = 16 g ai/ha, scale 0 to 100 (0 no effect, 100 complete control)
[24] = 31 g ai/ha, 0 to 100 scale, 0 no effect, 100 complete control
[25] = 16 g ai/ha, postemergence, 0-100 scale
[26] = Postemergence, 31 g ai/ha, scale 0 to 100
[27] = Preemergence, 31 g ai/ha, scale 0 to 100 (0 no effect, 100 complete control)
[28] = Preemergence, 62 g ai/ha, 0 to 100 scale, 0 no effect, 100 complete control
[29] = Preemergence, 16 g ai/ha, scale 0 to 100
[30] = 31 g ai/ha, scale 0 to 100 (0 no effect, 100 complete control)
[31] = 62 g ai/ha, 0 to 100 scale, 0 no effect, 100 complete control

Cc1cc(-c2ccc(Cl)cc2)nn1-c1c(OC(=O)c2cccc(Cl)c2)cnn(C)c1=O [Compound 32]
Goosegrass plant response rating [1, 15]: 0
Plant response rating, Goosegrass [1, 16]: 65
Plant response rating, Goosegrass [1, 17]: 70
Plant response rating, Goosegrass [1, 18]: 70
Plant response rating, Goosegrass [1, 19]: 98
Plant response rating, Goosegrass [1, 20]: 98
Plant response rating, Goosegrass [1, 21]: 100
Goosegrass plant response rating [1, 22]: 60
Plant response rating, Russian Thistle [2, 23]: 0
Plant response rating, Russian Thistle [2, 24]: 0
Plant response rating, Russian Thistle ([2]; 62 g ai/ha, scale 0 to 100): 0
Russian Thistle plant response rating ([2]; 8 g ai/ha, scale 0 to 100): 0
Surinam Grass plant response rating [3, 15]: 65
Plant response rating, Surinam Grass [3, 16]: 70
Plant response rating, Surinam Grass [3, 18]: 98
Plant response rating, Surinam Grass [3, 19]: 75
Plant response rating, Surinam Grass [3, 20]: 100
Plant response rating, Surinam Grass [3, 21]: 100
Surinam Grass plant response rating [3, 22]: 70
Ryegrass, Italian plant response rating [4, 15]: 5
Plant response rating, Ryegrass, Italian [4, 16]: 85
Plant response rating, Ryegrass, Italian [4, 17]: 95
Plant response rating, Ryegrass, Italian [4, 18]: 95
Plant response rating, Ryegrass, Italian [4, 19]: 100
Plant response rating, Ryegrass, Italian [4, 20]: 100
Plant response rating, Ryegrass, Italian [4, 21]: 100
Ryegrass, Italian plant response rating [4, 22]: 90
Ragweed plant response rating [5, 15]: 0
Plant response rating, Ragweed [5, 16]: 0
Plant response rating, Ragweed [5, 17]: 0
Plant response rating, Ragweed [5, 18]: 0
Plant response rating, Ragweed [5, 19]: 0
Plant response rating, Ragweed [5, 20]: 0
Plant response rating, Ragweed [5, 21]: 0
Ragweed plant response rating [5, 22]: 0
Foxtail, Green plant response rating [6, 15]: 60
Plant response rating, Foxtail, Green [6, 16]: 60
Plant response rating, Foxtail, Green [6, 17]: 90
Plant response rating, Foxtail, Green [6, 18]: 95
Plant response rating, Foxtail, Green [6, 19]: 100
Plant response rating, Foxtail, Green [6, 20]: 100
Plant response rating, Foxtail, Green [6, 21]: 100
Foxtail, Green plant response rating [6, 22]: 70
Johnsongrass plant response rating [7, 15]: 50
Plant response rating, Johnsongrass [7, 16]: 70
Plant response rating, Johnsongrass [7, 17]: 98
Plant response rating, Johnsongrass [7, 18]: 98
Plant response rating, Johnsongrass [7, 19]: 75
Plant response rating, Johnsongrass [7, 20]: 85
Plant response rating, Johnsongrass [7, 21]: 90
Johnsongrass plant response rating [7, 22]: 65
Pigweed plant response rating [8, 15]: 0
Plant response rating, Pigweed [8, 16]: 0
Plant response rating, Pigweed [8, 17]: 0
Plant response rating, Pigweed [8, 18]: 0
Plant response rating, Pigweed [8, 19]: 0
Plant response rating, Pigweed [8, 20]: 0
Plant response rating, Pigweed [8, 21]: 0
Pigweed plant response rating [8, 22]: 0
Corn plant response rating [9, 15]: 0
Plant response rating, Corn [9, 16]: 0
Plant response rating, Corn [9, 17]: 0
Plant response rating, Corn [9, 18]: 0
Plant response rating, Corn [9, 19]: 45
Plant response rating, Corn [9, 20]: 60
Plant response rating, Corn [9, 21]: 95
Corn plant response rating [9, 22]: 0
Kochia plant response rating [10, 15]: 0
Plant response rating, Kochia [10, 16]: 0
Plant response rating, Kochia [10, 17]: 0
Plant response rating, Kochia [10, 18]: 0
Plant response rating, Kochia [10, 19]: 0
Plant response rating, Kochia [10, 20]: 0
Plant response rating, Kochia [10, 21]: 0
Kochia plant response rating [10, 22]: 0
Plant response rating, Sunflower [11, 23]: 0
Plant response rating, Sunflower [11, 24]: 0
Plant response rating, Sunflower ([11]; 62 g ai/ha, scale 0 to 100): 0
Sunflower plant response rating ([11]; 8 g ai/ha, scale 0 to 100): 0
Nutsedge, Yellow plant response rating [12, 15]: 0
Plant response rating, Nutsedge, Yellow [12, 16]: 0
Plant response rating, Nutsedge, Yellow [12, 17]: 0
Plant response rating, Nutsedge, Yellow [12, 18]: 0
Plant response rating, Nutsedge, Yellow [12, 19]: 0
Plant response rating, Nutsedge, Yellow [12, 20]: 0
Plant response rating, Nutsedge, Yellow [12, 21]: 0
Nutsedge, Yellow plant response rating [12, 22]: 0
Plant response rating, Nightshade, E. B. [13, 23]: 0
Plant response rating, Nightshade, E. B. [13, 24]: 0
Plant response rating, Nightshade, E. B. ([13]; 62 g ai/ha, scale 0 to 100): 0
Nightshade, E. B. plant response rating ([13]; 8 g ai/ha, scale 0 to 100): 0
Foxtail, Giant plant response rating [14, 15]: 75
Plant response rating, Foxtail, Giant [14, 16]: 80
Plant response rating, Foxtail, Giant [14, 17]: 98
Plant response rating, Foxtail, Giant [14, 18]: 100
Plant response rating, Foxtail, Giant [14, 19]: 95
Plant response rating, Foxtail, Giant [14, 20]: 100
Plant response rating, Foxtail, Giant [14, 21]: 100
Foxtail, Giant plant response rating [14, 22]: 85

CCCc1cc(-c2ccc(C(F)(F)F)cc2)nn1-c1c(O)cnn(C)c1=O [Compound 72]
Goosegrass plant response rating [1, 15]: 30
Goosegrass plant response rating [1, 25]: 30
Plant response rating, Goosegrass [1, 26]: 35
Plant response rating, Goosegrass [1, 18]: 35
Plant response rating, Goosegrass [1, 27]: 95
Plant response rating, Goosegrass [1, 28]: 100
Goosegrass plant response rating [1, 22]: 95
Goosegrass plant response rating [1, 29]: 95
Plant response rating, Russian Thistle [2, 30]: 0
Plant response rating, Russian Thistle [2, 31]: 0
Russian Thistle plant response rating ([2]; 8 g ai/ha, scale 0 to 100): 0
Russian Thistle plant response rating ([2]; 16 g ai/ha, scale 0 to 100): 0
Surinam Grass plant response rating [3, 15]: 95
Surinam Grass plant response rating [3, 25]: 95
Plant response rating, Surinam Grass [3, 26]: 98
Plant response rating, Surinam Grass [3, 18]: 100
Plant response rating, Surinam Grass [3, 27]: 85
Plant response rating, Surinam Grass [3, 28]: 100
Surinam Grass plant response rating [3, 29]: 85
Ryegrass, Italian plant response rating [4, 15]: 80
Ryegrass, Italian plant response rating [4, 25]: 100
Plant response rating, Ryegrass, Italian [4, 26]: 100
Plant response rating, Ryegrass, Italian [4, 18]: 100
Plant response rating, Ryegrass, Italian [4, 27]: 100
Plant response rating, Ryegrass, Italian [4, 28]: 100
Ryegrass, Italian plant response rating [4, 22]: 75
Ryegrass, Italian plant response rating [4, 29]: 90
Ragweed plant response rating [5, 15]: 0
Ragweed plant response rating [5, 25]: 0
Plant response rating, Ragweed [5, 26]: 0
Plant response rating, Ragweed [5, 18]: 0
Plant response rating, Ragweed [5, 27]: 0
Plant response rating, Ragweed [5, 28]: 10
Ragweed plant response rating [5, 22]: 0
Ragweed plant response rating [5, 29]: 0
Foxtail, Green plant response rating [6, 15]: 98
Plant response rating, Foxtail, Green [6, 16]: 98
Plant response rating, Foxtail, Green [6, 26]: 100
Plant response rating, Foxtail, Green [6, 18]: 100
Plant response rating, Foxtail, Green [6, 27]: 100
Plant response rating, Foxtail, Green [6, 28]: 100
Foxtail, Green plant response rating [6, 22]: 25
Foxtail, Green plant response rating [6, 29]: 100
Johnsongrass plant response rating [7, 15]: 70
Johnsongrass plant response rating [7, 25]: 75
Plant response rating, Johnsongrass [7, 18]: 100
Plant response rating, Johnsongrass [7, 27]: 95
Plant response rating, Johnsongrass [7, 28]: 100
Johnsongrass plant response rating [7, 22]: 50
Johnsongrass plant response rating [7, 29]: 55
Pigweed plant response rating [8, 15]: 0
Pigweed plant response rating [8, 25]: 0
Plant response rating, Pigweed [8, 26]: 0
Plant response rating, Pigweed [8, 18]: 0
Plant response rating, Pigweed [8, 27]: 0
Plant response rating, Pigweed [8, 28]: 50
Pigweed plant response rating [8, 22]: 0
Pigweed plant response rating [8, 29]: 0
Corn plant response rating [9, 15]: 50
Plant response rating, Corn [9, 16]: 90
Plant response rating, Corn [9, 26]: 90
Plant response rating, Corn [9, 18]: 100
Plant response rating, Corn [9, 27]: 85
Plant response rating, Corn [9, 28]: 100
Corn plant response rating [9, 22]: 70
Corn plant response rating [9, 29]: 80
Kochia plant response rating [10, 15]: 0
Kochia plant response rating [10, 25]: 0
Plant response rating, Kochia [10, 26]: 0
Plant response rating, Kochia [10, 18]: 0
Plant response rating, Sunflower [11, 30]: 0
Plant response rating, Sunflower [11, 31]: 0
Sunflower plant response rating ([11]; 8 g ai/ha, scale 0 to 100): 0
Sunflower plant response rating ([11]; 16 g ai/ha, scale 0 to 100): 0
Nutsedge, Yellow plant response rating [12, 15]: 0
Nutsedge, Yellow plant response rating [12, 25]: 0
Plant response rating, Nutsedge, Yellow [12, 26]: 0
Plant response rating, Nutsedge, Yellow [12, 18]: 0
Plant response rating, Nutsedge, Yellow [12, 27]: 0
Plant response rating, Nutsedge, Yellow [12, 28]: 0
Nutsedge, Yellow plant response rating [12, 22]: 0
Nutsedge, Yellow plant response rating [12, 29]: 0
Plant response rating, Nightshade, E. B. [13, 30]: 0
Plant response rating, Nightshade, E. B. [13, 31]: 30
Nightshade, E. B. plant response rating ([13]; 8 g ai/ha, scale 0 to 100): 0
Nightshade, E. B. plant response rating ([13]; 16 g ai/ha, scale 0 to 100): 0
Foxtail, Giant plant response rating [14, 15]: 95
Plant response rating, Foxtail, Giant [14, 16]: 100
Plant response rating, Foxtail, Giant [14, 26]: 100
Plant response rating, Foxtail, Giant [14, 18]: 100
Plant response rating, Foxtail, Giant [14, 27]: 100
Plant response rating, Foxtail, Giant [14, 28]: 100
Foxtail, Giant plant response rating [14, 22]: 70
Foxtail, Giant plant response rating [14, 29]: 85
